Results as given in PMC8685421 (Frontiers in Pharmacology, 2021).
Where a SMILES comes first, the peptide text is derived from it. Bridges are numbered along the chain shown (N, C = ends).

Tests used:
Nav1.9 = biological target: T1, Nav1.9 (Homo sapiens, UniProt Q9UI33); test: Whole-cell patch-clamp, fast inactivation of Nav1.9 in ND7/23 cells; assay type: cell-based; details: 100 ms depolarization to −40 mV from −120 mV, Hill fit, mean ± SEM, n = 6, read-out: EC50 for inhibition of the fast inactivation of Nav1.9
T1 construct: expressed in transfected cells; host or cells: ND7/23
Excerpt: (§1) Rat Nav1.4, human Nav1.7 and rat Nav1.8 cDNA clones were kindly gift from Dr. Theodore Cummins (Stark Neurosciences Research Institute, Indiana University School of Medicine, Indianapolis, IN, United States) and were subcloned into the pCMV or pCDNA3.1-blank vectors. Human Nav1.9 was subcloned into the pEGFP-N1 vector. The C-terminal of hNav1.9 was linked to GFP to construct a fusion protein channel (hNav1.9-eGFP), which was as described in our previous studies ([Zhou et al., 2017]). Mutations were made using the site-directed mutation method or recombination-based cloning using GenBuilder™ Cloning Kit (GenScript, United States). Primers presented in Supplementary Tables 1–4. All mutations were verified by DNA sequencing.
(§2) ND7/23 and HEK293T cells were maintained at 37°C in a humidified 5% CO2 incubator in Dulbecco’s Modified Eagle’s Medium (DMEM) supplemented with 10% fetal bovine serum, 100 μg/ml streptomycin, 100 U/ml penicillin, and 2 mM L-glutamine. The cells were trypsinized, diluted with 1 ml of culture medium, and seeded at a 1:5 ratio in 35 mm Petri dishes for culture. When grown to 80–90% confluence, the ND7/23 cells were transfected with hNav1.9-GFP or hNav1.9-GFP mutants using the X-tremeGENE HP DNA Transfection Reagent (Roche, Basel, Switzerland) according to the manufacturer’s instructions. […]

Nav1.4 = biological target: T2, Nav1.4 (Rattus norvegicus, UniProt P15390); test: Whole-cell patch-clamp, Nav1.4 current in HEK293T cells; assay type: cell-based; details: 50 ms steps to −10 mV from −90 mV, n = 4–6, read-out: IC50 for inhibition of Nav1.4 current
T2 construct: expressed in transfected cells; host or cells: HEK293T
T2 sequence (P15390 whole entry): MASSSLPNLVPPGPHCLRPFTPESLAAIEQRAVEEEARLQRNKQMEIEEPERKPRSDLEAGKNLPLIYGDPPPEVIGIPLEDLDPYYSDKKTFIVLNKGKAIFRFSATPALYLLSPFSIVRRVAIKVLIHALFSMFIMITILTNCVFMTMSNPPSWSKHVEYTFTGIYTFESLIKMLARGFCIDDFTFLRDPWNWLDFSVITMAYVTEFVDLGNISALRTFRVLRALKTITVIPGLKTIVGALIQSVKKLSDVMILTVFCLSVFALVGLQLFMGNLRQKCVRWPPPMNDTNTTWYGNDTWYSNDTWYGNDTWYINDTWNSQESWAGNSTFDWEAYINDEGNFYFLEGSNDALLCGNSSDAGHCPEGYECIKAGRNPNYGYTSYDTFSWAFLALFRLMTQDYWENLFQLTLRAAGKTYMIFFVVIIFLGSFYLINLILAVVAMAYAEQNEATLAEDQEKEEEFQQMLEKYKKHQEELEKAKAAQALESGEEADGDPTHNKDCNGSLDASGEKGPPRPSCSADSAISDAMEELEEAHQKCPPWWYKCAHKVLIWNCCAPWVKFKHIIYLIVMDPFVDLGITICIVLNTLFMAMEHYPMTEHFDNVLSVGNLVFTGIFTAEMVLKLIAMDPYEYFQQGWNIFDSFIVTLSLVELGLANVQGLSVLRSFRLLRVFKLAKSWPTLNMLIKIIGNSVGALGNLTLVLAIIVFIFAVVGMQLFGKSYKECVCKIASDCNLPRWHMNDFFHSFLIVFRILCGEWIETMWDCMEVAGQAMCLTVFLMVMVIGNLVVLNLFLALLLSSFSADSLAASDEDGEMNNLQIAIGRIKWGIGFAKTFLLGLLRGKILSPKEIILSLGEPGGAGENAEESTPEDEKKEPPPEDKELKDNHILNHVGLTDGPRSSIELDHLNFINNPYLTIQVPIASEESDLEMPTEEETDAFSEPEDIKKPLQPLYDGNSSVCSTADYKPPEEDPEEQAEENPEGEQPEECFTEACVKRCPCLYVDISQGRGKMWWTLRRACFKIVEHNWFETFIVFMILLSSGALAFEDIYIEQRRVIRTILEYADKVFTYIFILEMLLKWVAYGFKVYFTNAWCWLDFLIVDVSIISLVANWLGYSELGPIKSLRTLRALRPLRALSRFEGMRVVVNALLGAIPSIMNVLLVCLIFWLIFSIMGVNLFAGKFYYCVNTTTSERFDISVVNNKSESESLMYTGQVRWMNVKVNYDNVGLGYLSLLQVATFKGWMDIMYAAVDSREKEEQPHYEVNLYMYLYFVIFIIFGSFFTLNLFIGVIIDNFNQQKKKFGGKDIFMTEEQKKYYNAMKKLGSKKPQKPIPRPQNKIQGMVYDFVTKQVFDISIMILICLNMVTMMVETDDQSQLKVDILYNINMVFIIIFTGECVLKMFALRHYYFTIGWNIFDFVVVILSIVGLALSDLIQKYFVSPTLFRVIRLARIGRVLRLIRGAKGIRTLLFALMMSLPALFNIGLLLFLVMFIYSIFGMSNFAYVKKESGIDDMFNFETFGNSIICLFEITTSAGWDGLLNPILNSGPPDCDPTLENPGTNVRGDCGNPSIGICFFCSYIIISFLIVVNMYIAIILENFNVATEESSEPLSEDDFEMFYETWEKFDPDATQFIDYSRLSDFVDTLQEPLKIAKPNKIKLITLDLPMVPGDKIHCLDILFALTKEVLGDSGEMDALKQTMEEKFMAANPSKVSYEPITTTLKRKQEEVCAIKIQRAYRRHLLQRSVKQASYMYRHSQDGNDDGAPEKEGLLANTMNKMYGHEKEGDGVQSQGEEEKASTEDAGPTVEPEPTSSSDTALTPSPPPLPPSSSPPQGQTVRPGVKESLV
Excerpt: as §1, §2

Nav1.7 = biological target: T3, Nav1.7 (Homo sapiens, UniProt Q15858); test: Whole-cell patch-clamp, Nav1.7 current in HEK293T cells; assay type: cell-based; details: 50 ms steps to −10 mV from −90 mV, n = 4–6, read-out: IC50 for inhibition of Nav1.7 current
T3 construct: expressed in transfected cells; host or cells: HEK293T
T3 sequence (Q15858 whole entry): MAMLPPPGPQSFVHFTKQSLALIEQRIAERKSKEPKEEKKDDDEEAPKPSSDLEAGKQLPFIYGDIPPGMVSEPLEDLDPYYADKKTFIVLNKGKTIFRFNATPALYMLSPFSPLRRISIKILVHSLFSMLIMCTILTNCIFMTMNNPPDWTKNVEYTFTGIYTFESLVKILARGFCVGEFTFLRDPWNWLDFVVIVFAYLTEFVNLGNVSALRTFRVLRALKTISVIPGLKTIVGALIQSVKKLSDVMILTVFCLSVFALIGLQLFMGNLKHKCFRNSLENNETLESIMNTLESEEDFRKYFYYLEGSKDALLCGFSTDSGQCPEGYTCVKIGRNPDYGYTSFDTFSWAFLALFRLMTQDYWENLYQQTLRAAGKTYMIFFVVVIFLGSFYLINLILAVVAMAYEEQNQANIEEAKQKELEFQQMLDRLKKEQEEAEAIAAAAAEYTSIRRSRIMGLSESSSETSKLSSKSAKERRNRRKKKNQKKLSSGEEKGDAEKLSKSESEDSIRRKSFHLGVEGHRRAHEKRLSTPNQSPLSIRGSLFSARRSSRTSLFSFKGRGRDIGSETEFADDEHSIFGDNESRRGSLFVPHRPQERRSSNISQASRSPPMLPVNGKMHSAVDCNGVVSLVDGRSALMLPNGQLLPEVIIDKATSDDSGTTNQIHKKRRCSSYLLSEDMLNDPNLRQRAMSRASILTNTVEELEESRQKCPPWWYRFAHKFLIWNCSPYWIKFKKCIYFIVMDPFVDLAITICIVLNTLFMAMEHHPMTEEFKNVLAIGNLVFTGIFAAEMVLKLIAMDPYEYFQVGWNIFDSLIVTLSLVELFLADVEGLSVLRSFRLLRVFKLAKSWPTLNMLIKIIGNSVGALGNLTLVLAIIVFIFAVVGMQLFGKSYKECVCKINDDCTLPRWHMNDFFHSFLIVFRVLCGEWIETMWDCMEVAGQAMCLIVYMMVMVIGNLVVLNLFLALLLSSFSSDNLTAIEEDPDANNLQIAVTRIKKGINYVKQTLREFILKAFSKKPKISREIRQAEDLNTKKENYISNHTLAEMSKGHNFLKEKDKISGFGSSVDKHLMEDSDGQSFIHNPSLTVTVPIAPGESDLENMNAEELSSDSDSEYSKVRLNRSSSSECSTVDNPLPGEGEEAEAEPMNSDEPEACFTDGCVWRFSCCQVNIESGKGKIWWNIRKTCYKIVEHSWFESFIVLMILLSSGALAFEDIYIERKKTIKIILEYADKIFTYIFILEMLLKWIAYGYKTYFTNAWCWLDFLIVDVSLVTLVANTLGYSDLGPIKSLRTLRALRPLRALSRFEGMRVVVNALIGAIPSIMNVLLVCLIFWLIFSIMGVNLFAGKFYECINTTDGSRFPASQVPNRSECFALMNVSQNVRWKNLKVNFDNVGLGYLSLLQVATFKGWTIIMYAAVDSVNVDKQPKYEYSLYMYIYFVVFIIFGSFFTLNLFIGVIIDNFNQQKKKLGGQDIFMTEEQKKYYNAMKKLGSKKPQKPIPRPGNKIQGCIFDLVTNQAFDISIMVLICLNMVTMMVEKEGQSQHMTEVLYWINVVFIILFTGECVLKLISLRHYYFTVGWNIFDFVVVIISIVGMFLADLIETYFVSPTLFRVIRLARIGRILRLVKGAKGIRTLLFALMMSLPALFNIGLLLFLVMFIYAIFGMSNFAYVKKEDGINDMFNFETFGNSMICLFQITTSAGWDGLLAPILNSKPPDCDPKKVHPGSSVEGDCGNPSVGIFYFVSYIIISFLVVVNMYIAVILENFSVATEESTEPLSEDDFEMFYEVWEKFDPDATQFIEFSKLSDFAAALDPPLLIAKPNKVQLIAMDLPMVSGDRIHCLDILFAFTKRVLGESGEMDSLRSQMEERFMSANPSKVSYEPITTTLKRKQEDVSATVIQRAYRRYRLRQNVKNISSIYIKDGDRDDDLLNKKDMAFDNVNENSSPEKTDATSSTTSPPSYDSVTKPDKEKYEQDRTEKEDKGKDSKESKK
Excerpt: as §1, §2

Nav1.9/1.8 DIV VSD = biological target: T4, Nav1.9/1.8 DIV VSD (Homo sapiens, UniProt Q9UI33, A1385V/A1393E/C1434F/D1399G/DEL1452-1455/H1400R/I1367A/I1373M/I1377C/I1397V/I1408V/I1415M/I1417M/I1446F/I1464V/INS1447AILK/K1392E/K1395T/L1401I/L1411G/L1414V/L1431V/L1438I/M1394K/M1445L/N1389E/P1391G/P1456Y/P1458S/R1481K/S1365R/S1374V/S1382T/S1387T/S1396K/T1444L/T1448S/V1404F/V1407A/V1435I/V1442G/V1465I/V1477I/W1403Q/Y1388D); test: Patch-clamp, chimera Nav1.9/1.8 DIV VSD; assay type: cell-based, human Nav1.9 / rat Nav1.8; details: mean ± SEM, n = 4; I95/Ipeak; read-out: EC50 for inhibition of the fast inactivation
T4 construct: expressed in transfected cells; host or cells: ND7/23
Excerpt: as §1, §2

[1] = test system: voltage sensor of Nav channels; details: ref Xiao et al., 2008, 2010, Zhou et al., 2020, Liu et al., 2013; cited from earlier work
Excerpt: Gating modifier toxins typically affect channel gating by regulating the voltage-sensor of the channel. […] Ther ...

Kv2.1 channel = details: ref Chen et al., 2012; Bemporad et al., 2006; cited from earlier work
Excerpt: The venom of the spider Grammostola rosea contains several classes of peptide toxins that target ion channels (Figure 1A). […] Due to poor heterologous expression in mammal cells, pharmacological studies of the Nav1.9 channel have lagged. Previously, we succeeded in achieving functional ...

Nav1.7 channel = test system: Nav1.7 channel; design: method as in 3 sources, one per row (each row's own in cited_ref): ref Murray et al., 2015 ||| ref Chen et al., 2020 ||| ref Xiao et al., 2010; details: ProTx-II; ref Xiao et al., 2010; cited from earlier work

Work on CC[C@H](C)[C@@H]1NC(=O)[C@H](CC(N)=O)NC(=O)[C@@H]2CCCN2C(=O)[C@H](Cc2c[nH]c3ccccc23)NC(=O)[C@H](CCCCN)NC(=O)[C@H](CCCNC(=N)N)NC(=O)[C@H](CCCCN)NC(=O)[C@@H]2CSSC[C@@H]3NC(=O)[C@H](CO)NC(=O)CNC(=O)[C@H](Cc4c[nH]c5ccccc45)NC(=O)[C@H](Cc4ccccc4)NC(=O)[C@H](CCC(N)=O)NC(=O)[C@H](CCCCN)NC(=O)[C@@H](NC(=O)[C@@H](N)CCC(=O)O)CSSC[C@H](NC(=O)[C@H](CSSC[C@@H](C(=O)N[C@@H](CC(C)C)C(=O)N[C@@H](Cc4c[nH]c5ccccc45)C(=O)N[C@@H](CC(=O)O)C(=O)NCC(=O)N[C@H](C(=O)N[C@@H](Cc4ccccc4)C(=O)N[C@@H](CO)C(=O)N[C@@H](CCCCN)C(=O)O)[C@@H](C)O)NC1=O)NC(=O)[C@H](CC(=O)O)NC(=O)[C@H](CO)NC(=O)[C@H](CC(=O)O)NC(=O)[C@H](CCCNC(=N)N)NC(=O)[C@H](CO)NC3=O)C(=O)N[C@@H](CCCCN)C(=O)N[C@@H](Cc1c[nH]cn1)C(=O)N[C@@H](CC(C)C)C(=O)NCC(=O)N2 [Gr4b, δ-theraphotoxin-Gr4b] (H-ECKQFWGSCSRDSDCCKHLGCKRKWPNICLWDGTFSK-OH; disulfide 2-16, 9-21, 15-29) yielded an EC50 (Nav1.9) of 25 ± 1 nM, an IC50 (Nav1.4) of 411 ± 184 nM and an IC50 (Nav1.7) of 27 ± 3 nM. For the same compound, the EC50 (Nav1.9/1.8 DIV VSD) was 1500 ± 250 nM.

In the case of HWTX-IV, the “reversal of toxin binding by depolarization” value [1] is listed as “reversed by prolonged strong depolarizations”.

For “HaTx1 (ECRYLFGGCKTTSDCCKHLGCKFRDKYCAWDFTFS; UniProt P56852 50-84, looked up)”, the “inhibition of Kv2.1 currents” value (Kv2.1 channel) is given as “significantly inhibit the currents of the Kv2.1 channel”.

For ProTx-II, the “inhibition of Nav1.7 current, voltage dependence” value (Nav1.7 channel) is listed as “inhibits the current of the Nav1.7 channel with a significant voltage dependence”.
